Results on four molecules are retold here after US9856207B2, “Process for the production of ralfinamide salts substantially free from impurities having genotoxic effects” (Newron Pharmaceuticals S.p.A., priority 2010, dated 2018).

Holding throughout (type): physicochemical
Data set [1] can be described thus: Exposure of form A crystals to air stream of high relative humidity (water uptake, solid form conversion). The settings on record: 97% RH air stream at 25° C. for two months. An excerpt: As an alternative procedure to the slurring with water for converting anhydrous form A crystals containing undesired amounts of genotoxic impurities and/or of the residual solvents known as potential precursors thereof into the corresponding hemihydrate pseudopolymorph form H substantially free from the genotoxic impurities and/or the residual solvents known as potential precursors thereof, the capability of anhydrous form A crystals to uptake water from air having high degree of relative humidity may be exploited. For example, full conversion of form A crystals into the corresponding hemihydrate pseudopolymorph form H crystals can be achieved by keeping a batch of ralfinamide methanesulfonate or its R-enantiomer form A crystals under air stream having relative humidity higher than 65% at a temperature from 5° C. to 30° C. for a period of time which may vary from days to weeks or months, depending on the relative humidity degree and the temperature.

Data set [2] can be described thus: Intrinsic Dissolution Rate (IDR) measurement according to USP General Chapter <1087>. The settings on record: ralfinamide methanesulfonate solid forms, USP <1087>. As to the method:
Intrinsic dissolution rate is characteristic of each solid compound in a given solvent under fixed hydrodynamic conditions. The knowledge of this value helps in predicting if absorption would be dissolution rate-limited. The Intrinsic Dissolution Rate (IDR) measurement of ralfinamide methanesulfonate form A and H was performed according to USP General Chapter <1087>.

The nature of data set [3]: Solubility of the free base in water. The settings on record: also at 100° C. The method, then:
According to a preferred method to carry out the procedure defined above as “salt formation”, the formation of ralfinamide methanesulfonate form H or its R-enantiomer is carried out by using water as the sole solvent in which the free base and the methanesulfonic acid are contacted in substantially equimolecular proportion. According to a more preferred method, methanesulfonic acid is added to a suspension or emulsion of the free base in water. Generally 50-70 percent of the stoichiometric amount of the acid is initially added. […] The remaining portion of methanesulfonic acid to complete the stoichiometric amount required for the salification, or a small excess or defect (in both cases of up to 3 molar %), is subsequently added to the obtained solution. […] Therefore, it would not be possible to apply prior to the addition of the acid, any purification method implying the treatment of a solution of the free base with active charcoal or inert powder followed by filtration to remove small particles and/or impurities. […] The complementary amount of acid may be added soon after this treatment of the solution, preferably, after lowering the temperature of the mixture below 70° C.

For `CS(=O)(=O)O.C[C@H](NCc1ccc(OCc2ccccc2F)cc1)C(N)=O` [Anhydrous form A, (S)-2-[4-(2-fluorobenzyloxy)benzylamino]propanamide methanesulfonate], in data set [1], the “Solid form stability under humid air” value is reported as “fully converted into the form H”. Also, the “Intrinsic Dissolution Rate” value in data set [2] amounted to 1.527 ± 0.265 mg · cm−2 · min−1.

Consider `C[C@H](NCc1ccc(OCc2ccccc2F)cc1)C(N)=O` [Ralfinamide free base, (S)-2-[4-(2-fluorobenzyloxy)benzylamino]propanamide], for which, in data set [3], the Solubility in water entry is listed as “practically insoluble in water”.

As to `CS(=O)(=O)O.C[C@H](NCc1ccc(OCc2ccccc2F)cc1)C(N)=O` [Hemihydrate form H, (S)-2-[4-(2-fluorobenzyloxy)benzylamino]propanamide methanesulfonate], the “Intrinsic Dissolution Rate” value in data set [2] was found to be 0.857 ± 0.012 mg · cm−2 · min−1.

In the case of `C[C@@H](NCc1ccc(OCc2ccccc2F)cc1)C(N)=O` [R-enantiomer, (R)-2-[4-(2-fluorobenzyloxy)benzylamino]propanamide], in data set [3], the Solubility in water result is “practically insoluble in water”.
